Results from article PMC9776381, “A Large-Scale High-Throughput Screen for Modulators of SERCA Activity” (Biomolecules, 2022).
“Also recorded” adds a separate entry of the source.

Tests used:
[1] = molecular target: T1, SERCA2a (cardiac SR vesicles) (Sus scrofa, UniProt P11607); test: NADH-coupled Ca-ATPase activity assay, cardiac SR (CRC at pCa 5.4); format: biochemical, porcine; settings: pCa 5.4, mean ± SD, n = 3; for Cardiac SR ATPase Activity Percent Increase: maximal effect of CRC
T1 construct: Cardiac SR vesicles were isolated from fresh porcine left ventricular tissue; from tissue; host or cells: porcine left ventricular tissue, cardiac SR vesicles
T1 sequence (P11607 1-997 isoform P11607-2): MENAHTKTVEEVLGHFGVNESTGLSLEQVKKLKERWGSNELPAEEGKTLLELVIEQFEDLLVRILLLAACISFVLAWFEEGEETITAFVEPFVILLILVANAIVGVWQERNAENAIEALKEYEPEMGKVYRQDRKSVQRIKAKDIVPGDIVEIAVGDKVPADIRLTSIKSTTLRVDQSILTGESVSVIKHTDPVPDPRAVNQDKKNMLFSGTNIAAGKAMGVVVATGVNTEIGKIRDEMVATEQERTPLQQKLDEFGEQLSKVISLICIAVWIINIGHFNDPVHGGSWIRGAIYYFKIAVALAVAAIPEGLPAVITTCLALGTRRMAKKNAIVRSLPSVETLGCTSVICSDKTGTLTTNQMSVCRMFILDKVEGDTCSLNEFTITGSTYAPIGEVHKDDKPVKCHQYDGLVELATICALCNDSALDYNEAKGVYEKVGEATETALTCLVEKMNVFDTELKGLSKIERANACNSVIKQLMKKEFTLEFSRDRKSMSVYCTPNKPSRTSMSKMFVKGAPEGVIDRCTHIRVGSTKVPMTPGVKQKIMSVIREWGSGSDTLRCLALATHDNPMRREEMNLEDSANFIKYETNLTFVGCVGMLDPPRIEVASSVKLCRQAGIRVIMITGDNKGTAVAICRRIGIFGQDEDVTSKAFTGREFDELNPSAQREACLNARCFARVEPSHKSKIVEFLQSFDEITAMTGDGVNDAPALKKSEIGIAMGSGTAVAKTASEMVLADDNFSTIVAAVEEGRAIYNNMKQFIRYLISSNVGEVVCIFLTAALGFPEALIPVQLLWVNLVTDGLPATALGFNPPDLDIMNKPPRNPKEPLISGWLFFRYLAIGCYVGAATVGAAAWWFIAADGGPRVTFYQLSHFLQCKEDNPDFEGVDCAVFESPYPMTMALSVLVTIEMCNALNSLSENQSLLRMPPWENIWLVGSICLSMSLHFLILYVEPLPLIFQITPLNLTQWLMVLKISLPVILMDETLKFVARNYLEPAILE
Experimental: (§1) For skeletal SR, rabbit muscles were freshly harvested from the back and hind leg of New Zealand White rabbits and purified using a sucrose gradient. The resulting light skeletal SR contains 80% SERCA, as a proportion of total protein content. Cardiac SR vesicles were isolated from fresh porcine left ventricular tissue.
(§2) Functional assays were performed using rabbit light skeletal sarcoplasmic (SR) vesicles. For high-throughput NADH-coupled screening, assay mix containing a final concentration of 50 mM MOPS (pH 7.0), 100 mM KCl, 1 mM EGTA, 0.2 mM NADH, 1 mM phosphoenol pyruvate, 10 IU/mL of pyruvate kinase, 10 IU/mL of lactate dehydrogenase, 1 µM of the calcium ionophore A23187, 4 µg/mL skeletal SR, and added CaCl2 to obtain pCa 5.4 was dispensed into 384-well DIVERSet assay plates containing 50 nL of compound or DMSO using a FlexDrop Precision liquid dispenser (Perkin Elmer, Waltham, Massachusetts). Plates were sealed, covered from light, and incubated at room temperature for 20 min. The assay was then started by dispensing MgATP (termed “initiation mix”), to a final concentration of 5 mM in each well (80 µL total assay volume) with the FlexDrop liquid dispenser (Perkin Elmer). The time dependence of absorbance was measured at 340 nm in a SpectraMax Plus384 microplate spectrophotometer (Molecular Devices, Sunnyvale, CA). For follow-up concentration response curves of Hit compounds, 400 nL of either compound or DMSO was dispensed into each well using an Echo liquid dispenser (Beckman Coulter). Testing dose-dependent compound effects on rabbit skeletal SR vesicles was done using the same method, as described above in 384-well plates. Determining compound effects on cardiac SR vesicles was done in a similar method as above, with the exception of 10 µg/mL of cardiac SR incubated in assay mix consisting of a final concentration of 50 mM MOPS (pH 7.0), 100 mM KCl, 1 mM EGTA, 1 µM of the calcium ionophore A23187, and added CaCl2 to the desired free calcium values. After a 20 min incubation, the “initiation mix”, containing a final concentration of 0.2 mM NADH, 1 mM phosphoenol pyruvate, 10 IU/mL of pyruvate kinase, 10 IU/mL of lactate dehydrogenase, and 5mM MgATP, was dispensed into each well.
While initial screening was performed in skeletal SR enriched with the SERCA1a isoform, high sequence and structural homology with the cardiac SERCA2a isoform predicts a potential for cross reactivity of the Hit compounds. To test this hypothesis, we performed ATPase analyses with cardiac SR microsomes, which are enriched for SERCA2a.

[2] = molecular target: T2, SERCA1a (skeletal SR vesicles) (Oryctolagus cuniculus, UniProt P04191); test: Oxalate-supported Ca2+-uptake assay, skeletal SR (CRC at pCa 5.4); format: biochemical, rabbit; settings: for Skeletal SR Ca^2+ Uptake Activity Percent Increase: maximal effect of CRC; for Skeletal SR Ca^2+ Uptake Activity Percent Increase / EC50: pCa 5.4, mean ± SD, dash = no observable effect; for EC50: read-out: Skeletal SR Ca^2+ Uptake Activity EC50
T2 construct: rabbit muscles were freshly harvested from the back and hind leg of New Zealand White rabbits and purified using a sucrose gradient; from tissue; host or cells: rabbit (New Zealand White) back and hind leg skeletal muscle, light SR vesicles
T2 sequence (P04191 1-994 isoform P04191-2): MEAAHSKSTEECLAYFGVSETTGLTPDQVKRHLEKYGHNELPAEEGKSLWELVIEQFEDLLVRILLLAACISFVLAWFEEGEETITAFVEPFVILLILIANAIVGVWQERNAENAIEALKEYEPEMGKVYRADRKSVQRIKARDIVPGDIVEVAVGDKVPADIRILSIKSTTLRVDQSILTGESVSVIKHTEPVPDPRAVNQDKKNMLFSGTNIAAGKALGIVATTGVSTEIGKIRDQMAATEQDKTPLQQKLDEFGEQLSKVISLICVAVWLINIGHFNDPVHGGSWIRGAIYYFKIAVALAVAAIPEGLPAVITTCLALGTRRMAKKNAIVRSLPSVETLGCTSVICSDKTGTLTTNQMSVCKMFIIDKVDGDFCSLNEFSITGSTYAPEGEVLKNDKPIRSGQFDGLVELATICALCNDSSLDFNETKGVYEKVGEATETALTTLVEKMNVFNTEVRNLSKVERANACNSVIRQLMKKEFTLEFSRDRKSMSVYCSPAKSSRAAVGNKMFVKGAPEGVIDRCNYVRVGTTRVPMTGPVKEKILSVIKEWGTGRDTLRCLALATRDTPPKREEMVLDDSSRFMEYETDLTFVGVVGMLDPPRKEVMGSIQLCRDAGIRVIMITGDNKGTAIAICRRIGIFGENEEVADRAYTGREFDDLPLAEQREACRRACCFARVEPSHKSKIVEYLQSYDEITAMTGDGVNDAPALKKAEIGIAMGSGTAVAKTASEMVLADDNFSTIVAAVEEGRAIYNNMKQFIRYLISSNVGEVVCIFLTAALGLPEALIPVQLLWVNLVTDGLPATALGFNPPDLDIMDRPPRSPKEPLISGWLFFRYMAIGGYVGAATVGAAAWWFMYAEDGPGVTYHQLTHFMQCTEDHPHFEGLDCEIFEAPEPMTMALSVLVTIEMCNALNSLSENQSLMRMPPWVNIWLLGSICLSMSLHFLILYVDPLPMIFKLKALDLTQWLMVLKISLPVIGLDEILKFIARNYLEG
Experimental: as §1
(§3) To determine compound effect on the Ca^2+-uptake activity of SERCA1a and SERCA2a, we used an oxalate-supported assay. A solution containing 50 mM MOPS (pH 7.0), 100 mM KCl, 30 mg/mL sucrose, 1 mM EGTA, 10 mM potassium oxalate, 2 µM Fluo-4, 30 µg/mL cardiac SR vesicles or 12 μg/mL skeletal SR vesicles, and CaCl2 calculated to reach the desired free [Ca^2+] was dispensed into 384-well black walled, transparent bottomed plates (Greiner Bio-One) containing the tested small molecule and incubated at 21 °C for 20 min while covered and protected from light. To start the reaction, MgATP was added to a final concentration of 5 mM, and the decrease in 485-nm excited fluorescence was monitored at 520 nm for 15 min using a FLIPR Tetra (Molecular Devices, San Jose, CA, USA).
While Ca^2+-dependent ATPase activity is a direct measure of SERCA activity, coupling of ATP hydrolysis to transport of Ca^2+ across the SR membrane is essential for the role of SERCA in cellular physiology. Therefore, we next asked whether our ATPase-based HTS assay could successfully identify compounds that also increase Ca^2+ uptake of SERCA.

[3] = molecular target: T1, SERCA2a (cardiac SR vesicles); test: Oxalate-supported Ca2+-uptake assay, cardiac SR (CRC at pCa 5.4); format: biochemical, porcine; settings: for Cardiac SR Ca^2+ Uptake Activity Percent Increase: maximal effect of CRC; for Cardiac SR Ca^2+ Uptake Activity Percent Increase / EC50: pCa 5.4, mean ± SD, dash = no observable effect; for Cardiac SR Ca^2+ Uptake Activity Percent Increase / EC50 / Compound classification from ATPase vs. Ca^2+ uptake CRCs, cardiac SR: n = 3; for EC50: read-out: Cardiac SR Ca^2+ Uptake Activity EC50
Experimental: as §1, §3
To determine whether the observed increases in SERCA2a ATPase activity translate to Ca^2+ uptake function, we applied our Ca^2+ transport assay to test our selected Hit compounds in cardiac SR (Table 1). Indeed, 16 of the 19 compounds yielded a clear increase in Ca^2+ uptake activity. In fact, eight compounds generated an increase at least 50% greater in cardiac SR than in skeletal SR. Three compounds had either an inhibitory or no effect on Ca^2+ transport, and two of these were also non-activating compounds in skeletal SR.

[4] = molecular target: T3, SERCA1a (rabbit light skeletal SR vesicles) (Oryctolagus cuniculus, UniProt P04191); test: NADH-coupled Ca-ATPase activity assay, skeletal SR (CRC at pCa 5.4); format: biochemical; settings: n = 3; for Skeletal SR ATPase Activity Percent Increase: maximal effect of CRC 0.05 to 50 µM, pCa 5.4, relative to DMSO, mean ± SD; for EC50: pCa 5.4, mean ± SD
T3 construct: rabbit muscles were freshly harvested from the back and hind leg of New Zealand White rabbits and purified using a sucrose gradient; from tissue; host or cells: rabbit (New Zealand White) back and hind leg skeletal muscle, light SR vesicles
T3 sequence (P04191 1-994 isoform P04191-2): as above
Experimental: as §1, §2
The initial screen assay was performed with compounds at 10 µM. To better study the selected Hit compounds for their activation potential, we performed ATPase analyses (in triplicate) over a range of Hit concentrations (0.05 to 50 µM), generating concentration-response curves (CRCs) to determine maximal effects and EC50 (Figure 2). We used the same Ca^2+ concentration (pCa 5.4) as in the screening assays, thus focusing on the effects on the maximal velocity of SERCA. Two of the selected Hits yielded no response in follow-up assays, probably due to a mismatch in chemical composition between the library compound and the subsequently ordered compound (DS95401435 and DS41547941). This type of discrepancy is a typical hurdle in the screening process. Each of the other 19 compounds produced a substantial increase in ATPase activity, ranging from 30% to 72% (Table 1 and Supporting Information, Figure S1), as expected due to similarity of the CRC assay to the initial screen.

Row | SMILES | Cardiac SR ATPase Activity Percent Increase [1] [%] | EC50 [1] [µM] | Skeletal SR Ca^2+ Uptake Activity Percent Increase ([2]; n = 3) [%] | EC50 ([2]; n = 3) [µM] | Cardiac SR Ca^2+ Uptake Activity Percent Increase [3] [%] | EC50 [3] [µM] | Skeletal SR ATPase Activity Percent Increase [4] [%] | EC50 [4] [µM] | Compound classification from ATPase vs. Ca^2+ uptake CRCs, skeletal SR ([2]; skeletal SR, n = 3) | Compound classification from ATPase vs. Ca^2+ uptake CRCs, cardiac SR ([3]; cardiac SR) | Effect on Ca^2+ uptake activity in skeletal SR (in words) ([2]; skeletal SR, pCa 5.4) | Effect on Ca^2+ uptake activity in cardiac SR (in words) ([3]; cardiac SR, pCa 5.4)
1 | COc1cccc(-c2nn(-c3ccccc3)cc2CN(Cc2c(C)nn(C)c2C)C2CC2)c1 [Compound 18] | 37 ± 1 | 4.3 ± 0.3 | 8.9 ± 0.1 | 1.1 ± 0.3 | 12 ± 1 | 0.9 ± 0.2 | 39 ± 1 | 5.2 ± 0.3 |  |  |  | 
2 | CCOC(=O)C1(Cc2cccc(C(F)(F)F)c2)CCN(C(=O)c2sccc2C)CC1 [Compound 8] | 43 ± 2 | 3.4 ± 0.3 | 13 ± 1 | 1.3 ± 0.4 | 18 ± 2 | 0.8 ± 0.3 | 45 ± 2 | 4 ± 0.4 | Improved Coupling Compounds |  |  | 
3 | Fc1ccc(N2CCCN(Cc3nc(C(c4ccccc4)c4ccccc4)no3)CC2)cc1 [Compound 12] | 29 ± 1 | 2.3 ± 0.3 | 6.5 ± 0.5 | 0.6 ± 0.2 | −10 ± 3 | 1.3 ± 0.1 | 41 ± 2 | 3.4 ± 0.4 |  | Isoform-specific uncoupler | significant activation; also recorded: small but significant increase | strong uncoupling effect; also recorded: inhibition of Ca^2+ uptake activity

Continued, in another order:

Row | Cardiac SR ATPase Activity Percent Increase [1] [%] | EC50 [1] [µM] | Skeletal SR Ca^2+ Uptake Activity Percent Increase ([2]; n = 3) [%] | EC50 ([2]; n = 3) [µM] | Cardiac SR Ca^2+ Uptake Activity Percent Increase [3] [%] | EC50 [3] [µM] | Skeletal SR ATPase Activity Percent Increase [4] [%] | EC50 [4] [µM] | Compound classification from ATPase vs. Ca^2+ uptake CRCs, skeletal SR ([2]; skeletal SR, n = 3) | Compound classification from ATPase vs. Ca^2+ uptake CRCs, cardiac SR ([3]; cardiac SR) | SMILES | Effect on Ca^2+ uptake activity in skeletal SR (in words) ([2]; skeletal SR, pCa 5.4) | Effect on Ca^2+ uptake activity in cardiac SR (in words) ([3]; cardiac SR, pCa 5.4)
4 | 33 ± 3 | 2.9 ± 0.6 | 15 ± 1 | 2.2 ± 0.4 | 12 ± 1 | 1.2 ± 0.2 | 36 ± 2 | 4 ± 0.5 |  |  | COc1ncc(CN(Cc2sccc2C)CC(C)C)cn1 [Compound 2] |  | 
5 | 22 ± 2 | 6.3 ± 0.4 | 7.2 ± 0.1 | 1.8 ± 0.7 | 8 ± 1 | 2.4 ± 0.6 | 42 ± 2 | 7.3 ± 0.8 |  |  | OCc1ccccc1-c1ccc(-c2nc(CCc3ccccc3)no2)cn1 [Compound 19] |  | 
6 | 51 ± 3 | 2.9 ± 0.3 | 14 ± 2 | 1.4 ± 0.4 | 24 ± 3 | 1.3 ± 0.4 | 41 ± 3 | 3.6 ± 0.4 |  | Linked Activating Compounds | CCOC(=O)C1(CCCc2ccccc2)CCN(C(=O)CC2=CCCCC2)CC1 [Compound 7] |  | 
